Results on 19 compounds are retold here after ChEMBL document CHEMBL2380264, “Synthesis and antitumor activity of 1,3,4-oxadiazole possessing 1,4-benzodioxan moiety as a novel class of potent methionine aminopeptidase type II inhibitors” (Bioorg Med Chem Lett, 2013).

The test system of data set [1] is HUVEC. In words: Antiproliferative against HUVEC after 48 hrs by MTT assay. To be noted: Homo sapiens. (Tetrazolium assays rely on reduction of a dye to a coloured formazan, in cell work by metabolically active cells.)
Data set [2] can be described thus: Cytotoxicity against HUVEC after 24 hrs by MTT assay. It is filed as cell-based. To be noted: human, HUVEC cells.
Data set [3] relates to HUVEC. In words: Induction of apoptosis in HUVEC assessed as dead cells at 4 uM after 24 hrs by annexin V-FITC/propidium iodide staining-based FACS flow cytometric analysis (reference value: 2.82%). Format: functional, Homo sapiens. (In general: Flow cytometry measures light scatter and fluorescence of single cells or particles in a stream.)
Data set [4] relates to HUVEC. In words: Induction of apoptosis in HUVEC assessed as late apoptotic cells at 2 uM after 24 hrs by annexin V-FITC/propidium iodide staining-based FACS flow cytometric analysis (reference value: 0.09%). Format: functional, Homo sapiens.
The test system of data set [5] is HUVEC. In words: Induction of apoptosis in HUVEC assessed as early apoptotic cells at 4 uM after 24 hrs by annexin V-FITC/propidium iodide staining-based FACS flow cytometric analysis (reference value: 0.02%). It is filed as functional, Homo sapiens.
For data set [6], the system named is HUVEC. In words: Induction of apoptosis in HUVEC assessed as late apoptotic cells at 0.5 uM after 24 hrs by annexin V-FITC/propidium iodide staining-based FACS flow cytometric analysis (reference value: 0.09%). It is filed as functional, Homo sapiens.
For data set [7], the system named is HUVEC. As to the kind of experiment: Induction of apoptosis in HUVEC assessed as late apoptotic cells at 1 uM after 24 hrs by annexin V-FITC/propidium iodide staining-based FACS flow cytometric analysis (reference value: 0.09%). It is filed as functional, Homo sapiens.
For data set [8], the system named is HUVEC. In words: Induction of apoptosis in HUVEC assessed as dead cells at 0.5 uM after 24 hrs by annexin V-FITC/propidium iodide staining-based FACS flow cytometric analysis (reference value: 2.82%). Format: functional, Homo sapiens.
Data set [9] concerns HUVEC. In words: Induction of apoptosis in HUVEC assessed as dead cells at 1 uM after 24 hrs by annexin V-FITC/propidium iodide staining-based FACS flow cytometric analysis (reference value: 2.82%). Format: functional, Homo sapiens.
In data set [10] the test system is HUVEC. In words: Induction of apoptosis in HUVEC assessed as early apoptotic cells at 0.5 uM after 24 hrs by annexin V-FITC/propidium iodide staining-based FACS flow cytometric analysis (reference value: 0.02%). It is filed as functional, Homo sapiens.
The subject of data set [11] is HUVEC. In words: Induction of apoptosis in HUVEC assessed as viable cells at 1 uM after 24 hrs by annexin V-FITC/propidium iodide staining-based FACS flow cytometric analysis (reference value: 96.26%). Format: functional. To be noted: Homo sapiens, read-out: Activity.
The subject of data set [12] is HUVEC. As to the kind of experiment: Induction of apoptosis in HUVEC assessed as dead cells at 2 uM after 24 hrs by annexin V-FITC/propidium iodide staining-based FACS flow cytometric analysis (reference value: 2.82%). Format: functional, Homo sapiens.
Data set [13] relates to HUVEC. As to the kind of experiment: Induction of apoptosis in HUVEC after 24 hrs by annexin V-FITC/propidium iodide staining-based FACS flow cytometric analysis. Format: functional, cell-based. To be noted: Homo sapiens.
The test system of data set [14] is HUVEC. As to the kind of experiment: Induction of apoptosis in HUVEC assessed as viable cells at 4 uM after 24 hrs by annexin V-FITC/propidium iodide staining-based FACS flow cytometric analysis (reference value: 96.26%). Format: functional. To be noted: Homo sapiens, read-out: Activity.
Data set [15] relates to HUVEC. In words: Induction of apoptosis in HUVEC assessed as late apoptotic cells at 4 uM after 24 hrs by annexin V-FITC/propidium iodide staining-based FACS flow cytometric analysis (reference value: 0.09%). It is filed as functional, Homo sapiens.
In data set [16] the test system is HUVEC. As to the kind of experiment: Induction of apoptosis in HUVEC assessed as early apoptotic cells at 1 uM after 24 hrs by annexin V-FITC/propidium iodide staining-based FACS flow cytometric analysis (reference value: 0.02%). Format: functional, Homo sapiens.
The test system of data set [17] is HUVEC. In words: Induction of apoptosis in HUVEC assessed as viable cells at 2 uM after 24 hrs by annexin V-FITC/propidium iodide staining-based FACS flow cytometric analysis (reference value: 96.26%). To be noted: Homo sapiens, read-out: Activity. It is filed as functional.
Data set [18] has as its system HUVEC. In words: Induction of apoptosis in HUVEC assessed as viable cells at 0.5 uM after 24 hrs by annexin V-FITC/propidium iodide staining-based FACS flow cytometric analysis (reference value: 96.26%). Particulars: Homo sapiens, read-out: Activity. It is filed as functional.
For data set [19], the system named is HUVEC. As to the kind of experiment: Induction of apoptosis in HUVEC assessed as early apoptotic cells at 2 uM after 24 hrs by annexin V-FITC/propidium iodide staining-based FACS flow cytometric analysis (reference value: 0.02%). It is filed as functional, Homo sapiens.
Data set [20] has as its target Methionine aminopeptidase 2 (Homo sapiens, UniProt P50579). As to the kind of experiment: Inhibition of MetAP2 (unknown origin) after 4 hrs.

SMILES strings stand for the structures.

By IC50 is commonly meant the concentration that gives 50% inhibition. A low value points to greater potency. One may read the CC50 as the concentration at which the toxic effect on the cells reaches its halfway point. Read a low CC50 as greater toxicity to the cells.

Chain of Methionine aminopeptidase 2 (P50579 whole entry): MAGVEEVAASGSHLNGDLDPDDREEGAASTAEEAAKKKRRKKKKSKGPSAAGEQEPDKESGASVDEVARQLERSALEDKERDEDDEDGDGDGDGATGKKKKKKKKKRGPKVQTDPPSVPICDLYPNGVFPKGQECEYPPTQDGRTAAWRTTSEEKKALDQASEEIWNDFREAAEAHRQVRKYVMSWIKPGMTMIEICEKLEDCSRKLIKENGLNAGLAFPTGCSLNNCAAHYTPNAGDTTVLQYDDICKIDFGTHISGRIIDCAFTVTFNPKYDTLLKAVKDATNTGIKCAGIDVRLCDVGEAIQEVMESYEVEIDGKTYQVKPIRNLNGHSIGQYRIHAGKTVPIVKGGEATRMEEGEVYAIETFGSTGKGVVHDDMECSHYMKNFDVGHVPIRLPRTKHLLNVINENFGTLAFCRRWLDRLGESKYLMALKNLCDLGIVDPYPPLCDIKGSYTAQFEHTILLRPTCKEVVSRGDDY

`O=[N+]([O-])c1ccccc1/C=C/c1nnc(-c2ccc3c(c2)OCCO3)o1` came in with an IC50 with HUVEC [1] of 25 µM. This compound also showed a 50% cytotoxic concentration (CC50) at 24 h in data set [2] of 323 µM.
`COc1ccc(/C=C/c2nnc(-c3ccc4c(c3)OCCO4)o2)cc1` yielded an IC50 in the data set on HUVEC [1] of over 50 µM. Also, the 50% cytotoxic concentration (CC50) at 24 h in data set [2] turned out to be 312 µM.
`Clc1ccc(/C=C/c2nnc(-c3ccc4c(c3)OCCO4)o2)cc1` showed an IC50 in the data set on HUVEC [1] of 8.03 µM. Besides, it took 312 µM to reach half-maximal cytotoxicity in data set [2] (CC50 at 24 h).
Regarding `Brc1ccccc1/C=C/c1nnc(-c2ccc3c(c2)OCCO3)o1`, the concentration for half-maximal inhibition (IC50) in the data set on HUVEC [1] amounted to 8.89 µM. Moreover, the midpoint of cytotoxicity in data set [2], the CC50 at 24 h, lay at 287 µM.
The like results for `Brc1ccc(/C=C/c2nnc(-c3ccc4c(c3)OCCO4)o2)cc1` were, in that order, 22.3 µM and 491 µM.
`O=[N+]([O-])c1ccc(/C=C/c2nnc(-c3ccc4c(c3)OCCO4)o2)cc1` showed an IC50 in the data set on HUVEC [1] of 32.1 µM. For the same compound, the midpoint of cytotoxicity in data set [2], the CC50 at 24 h, lay at 299 µM.
On the same counts, the results for `NNC(=O)c1ccc2c(c1)OCCO2` are over 50 µM and 200 µM.
For `Clc1ccccc1/C=C/c1nnc(-c2ccc3c(c2)OCCO3)o1`, the IC50 in the data set on HUVEC [1] stood at 7.71 µM. Besides, the midpoint of cytotoxicity in data set [2], the CC50 at 24 h, lay at 368 µM.
The like results for `Fc1cccc(/C=C/c2nnc(-c3ccc4c(c3)OCCO4)o2)c1` were, in that order, 3.53 µM and 295 µM.
Consider `COc1cccc(/C=C/c2nnc(-c3ccc4c(c3)OCCO4)o2)c1`, for which, in the data set on HUVEC [1], the IC50 was over 50 µM. Besides, in data set [2], the midpoint of cytotoxicity, the CC50 at 24 h, lay at 332 µM.
The like results for `Cc1ccccc1/C=C/c1nnc(-c2ccc3c(c2)OCCO3)o1` were, in that order, 40.5 µM and 356 µM.
With `Fc1ccccc1/C=C/c1nnc(-c2ccc3c(c2)OCCO3)o1`, the Activity with HUVEC [3] is on record as 26.23%; in the data set on HUVEC [4], 16.4%; in the data set on HUVEC [5] it was 8.64%; in the data set with HUVEC [6], 5.22%; in the data set on HUVEC [7], 14.01%; with HUVEC [8], 30.26%. Also, the Activity in the data set on HUVEC [9] is 26.68%; with HUVEC [10], 1.07%; in the data set with HUVEC [12] it was 31.26%; with HUVEC [13], “Dose-dependent effect”; with HUVEC [15], 25.61%; in the data set on HUVEC [16] it was 2.69%. Also, the Activity with HUVEC [19] came to 3.01%. The compound further gave an IC50 with HUVEC [1] of 1.16 µM. This compound also registered a CC50 at 24 h in data set [2] of 402 µM. Further, the viability at 1 µM in the data set with HUVEC [11] was 56.6%. Further, the viability at 4 µM in the data set with HUVEC [14] is 39.5%. For the same compound, in the data set with HUVEC [17], the viability at 2 µM was found to be 49.3%. Further, the viability at 0.5 µM with HUVEC [18] was found to be 63.5%.
For the compound `O=[N+]([O-])c1cccc(/C=C/c2nnc(-c3ccc4c(c3)OCCO4)o2)c1`, 30.1 µM corresponded to half-maximal inhibition in the data set with HUVEC [1] (IC50). In data set [2], the CC50 at 24 h was 309 µM.
The like results for `Brc1cccc(/C=C/c2nnc(-c3ccc4c(c3)OCCO4)o2)c1` were, in that order, 13.5 µM and 322 µM.
On the same counts, the results for `C(=C\c1nnc(-c2ccc3c(c2)OCCO3)o1)/c1ccccc1` are over 50 µM and 209 µM.
`Fc1ccc(/C=C/c2nnc(-c3ccc4c(c3)OCCO4)o2)cc1`: in the data set on HUVEC [1], 4.96 µM corresponded to half-maximal inhibition (IC50). Besides, the CC50 at 24 h in data set [2] is 325 µM.
Consider `CO[C@@H]1[C@H](OC(=O)NC(=O)CCl)CC[C@]2(CO2)[C@H]1[C@@]1(C)O[C@@H]1CC=C(C)C` [O-CHLOROACETYLCARBAMOYLFUMAGILLOL], for which the results for the IC50 (in the data set on HUVEC [1]; in data set [20]) were 1.96 µM and 1.32 µM, respectively.
Take `Cc1cccc(/C=C/c2nnc(-c3ccc4c(c3)OCCO4)o2)c1`: the half-maximal inhibitory concentration (IC50) in the data set with HUVEC [1] was 40.6 µM. In data set [2], this compound registered a CC50 at 24 h of 201 µM.
The like results for `Cc1ccc(/C=C/c2nnc(-c3ccc4c(c3)OCCO4)o2)cc1` were, in that order, 45.2 µM and 265 µM.
